Experimental data published in ChEMBL document CHEMBL1133508, “Syntheses and antimalarial activities of 10-substituted deoxoartemisinins” (2000).

Experiments:
Plasmodium falciparum [1] = assay: In vitro relative activity against chloroquine-sensitive, mefloquine-resistant Plasmodium falciparum D6; assay type: functional
Plasmodium falciparum [2] = assay: In vitro activity against chloroquine-resistant, mefloquine-sensitive Plasmodium falciparum W2; assay type: functional

SMILES | Relative activity (Plasmodium falciparum [1]) | Relative activity (Plasmodium falciparum [2])
C[C@H]1[C@@H](CC(=O)C(C)(C)C)O[C@@H]2OC3(C)CC[C@H]4[C@H](C)CC[C@@H]1[C@@]24OO3 (single isomer, unassigned) | 1.6 | 2.1
C[C@H]1[C@@H](C[C@H](C)O)O[C@@H]2OC3(C)CC[C@H]4[C@H](C)CC[C@@H]1[C@@]24OO3 (single isomer, unassigned) | 0.98 | 1
C[C@H]1[C@@H](C[C@@H](O)C(F)(F)F)O[C@@H]2OC3(C)CC[C@H]4[C@H](C)CC[C@@H]1[C@@]24OO3 (single isomer, unassigned) | 3.1 | 2.4
C[C@H]1[C@@H](C2C=CC(=O)O2)O[C@@H]2O[C@]3(C)CC[C@H]4[C@H](C)CC[C@@H]1[C@@]24OO3 (some centres not stated) | 0.77 | 0.18
CC[C@H](O)C[C@H]1O[C@@H]2OC3(C)CC[C@H]4[C@H](C)CC[C@@H]([C@H]1C)[C@@]24OO3 (single isomer, unassigned) | 2.2 | 3.6
CC[C@@H](O)C[C@H]1O[C@@H]2OC3(C)CC[C@H]4[C@H](C)CC[C@@H]([C@H]1C)[C@@]24OO3 (single isomer, unassigned) | 5.8 | 4.8
C[C@H]1[C@@H](C#N)O[C@@H]2OC3(C)CC[C@H]4[C@H](C)CC[C@@H]1[C@@]24OO3 (single isomer, unassigned) | 1.5 | 1.1
C[C@H]1[C@@H](C[C@@H](C)O)O[C@@H]2OC3(C)CC[C@H]4[C@H](C)CC[C@@H]1[C@@]24OO3 (single isomer, unassigned) | 1.7 | 1.7
C[C@H]1[C@@H](CC=O)O[C@@H]2OC3(C)CC[C@H]4[C@H](C)CC[C@@H]1[C@@]24OO3 (single isomer, unassigned) | 3.5 | 1.8
C[C@H]1[C@@H](CC(=O)c2ccccc2)O[C@@H]2OC3(C)CC[C@H]4[C@H](C)CC[C@@H]1[C@@]24OO3 (single isomer, unassigned) | 0.16 | 2.5
CC(=O)C[C@H]1O[C@@H]2OC3(C)CC[C@H]4[C@H](C)CC[C@@H]([C@H]1C)[C@@]24OO3 (single isomer, unassigned) | 2.6 | 1.7
CCOC(=O)/C=C/C[C@H]1O[C@@H]2OC3(C)CC[C@H]4[C@H](C)CC[C@@H]([C@H]1C)[C@@]24OO3 (single isomer, unassigned) | 1.1 | 1.4
C[C@H]1[C@@H](C2CCCC2=O)O[C@@H]2OC3(C)CC[C@H]4[C@H](C)CC[C@@H]1[C@@]24OO3 (single isomer, unassigned) | 0.91 | 1.6
CC(C)[C@H](O)C[C@H]1O[C@@H]2OC3(C)CC[C@H]4[C@H](C)CC[C@@H]([C@H]1C)[C@@]24OO3 (single isomer, unassigned) | 1.4 | 2.3
CC(C)C(=O)C[C@H]1O[C@@H]2OC3(C)CC[C@H]4[C@H](C)CC[C@@H]([C@H]1C)[C@@]24OO3 (single isomer, unassigned) | 1.8 | 2.1
CC(C)[C@@H](O)C[C@H]1O[C@@H]2OC3(C)CC[C@H]4[C@H](C)CC[C@@H]([C@H]1C)[C@@]24OO3 (single isomer, unassigned) | 2.2 | 1.7
C[C@H]1[C@@H](C[C@H](O)C(F)(F)F)O[C@@H]2OC3(C)CC[C@H]4[C@H](C)CC[C@@H]1[C@@]24OO3 (single isomer, unassigned) | 2.5 | 3.1
C[C@H]1[C@@H](C2CCCC(=O)O2)O[C@@H]2OC3(C)CC[C@H]4[C@H](C)CC[C@@H]1[C@@]24OO3 (single isomer, unassigned) | 1.4 | 2.2
C[C@H]1[C@@H](C[C@H](O)C(C)(C)C)O[C@@H]2OC3(C)CC[C@H]4[C@H](C)CC[C@@H]1[C@@]24OO3 (single isomer, unassigned) | 6.8 | 5.4
C[C@H]1[C@@H](C[C@@H](O)C(C)(C)C)O[C@@H]2OC3(C)CC[C@H]4[C@H](C)CC[C@@H]1[C@@]24OO3 (single isomer, unassigned) | 1.6 | 1
CCC(=O)C[C@H]1O[C@@H]2OC3(C)CC[C@H]4[C@H](C)CC[C@@H]([C@H]1C)[C@@]24OO3 (single isomer, unassigned) | 1 | 1.3
